Test results published in patent US20080280890A1, “HYDROXYLAMINE COMPOUNDS AND METHODS OF THEIR USE” (priority 2007, published 2008).
Values joined by “and” are separate entries in the source; they are usually repeats but may differ in a detail not shown here. Equal entries are not always repeated. Where two headings read alike, the source gives them in different places. Each block holds one molecule with its values, some of them ahead of it.

How the values were obtained:
lipid peroxidation = assay: Lipid peroxidation inhibition (method of Ohkawa); format: biochemical; details: for Lipid Peroxidation % Inhibition: 10 uM
[1] = tested on: Angiogenesis in CAM model; assay: Neovascularization on the CAM (chick chorioallantoic membrane model of angiogenesis); format: in vivo, chicken; details: for Percent inhibition of angiogenesis in CAM model at 30 ug: unit assumed; for Percent inhibition of angiogenesis in CAM model at 30 ug / CAM data % Inhibition: 30 ug
Method in brief: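 Chick CAM of 10-day embryos given filter disks pretreated with cortisone acetate and saturated with bFGF (1 μg/ml) or other pro-angiogenic factors. After 24-48 hr, 10-25 ul test agent was injected intravenously or applied topically. After 3 days at 37° C, vessel branch points under each disk were counted at 50× (8 CAMs/group) and converted to % inhibition relative to positive and negative controls.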

[2] = tested on: Human neuroblastoma SKN-SH cells, resistant to doxorubicin; assay: Chemoresistance: cancer cell viability (MTT) in presence or absence of doxorubicin; format: cell-based; details: for Mean OD (×10^−3), cancer cell viability: compound 50 ug/mL, MTT
Method in brief: (§1)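 Doxorubicin-resistant SKN-SH neuroblastoma cells, selected by stepwise exposure to 10^−9–10^−6 M doxorubicin over 3 months, in DMEM/10% FBS at 37 °C. Treated with doxorubicin alone or with hydroxylamine for 72 h (96 h in one variant). MTT read at 570 nm, survival relative to untreated cells.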

TNF-alpha = assay: LPS induced TNF-alpha inhibition (whole blood / THP-1 cells, ELISA); format: cell-based, human
Description: Following incubation with LPS, PBS was added (800 uL) and samples were spun for 10 minutes at 1500 g. […] TNFα protein concentrations were measured using R&D Systems high sensitivity ELISA kit.
The lipid peroxidation assay method of Ohkawa, H.; Ohishi, N.; Yaki, K. Anal. Biochem. 1979, 95, 351 was used to evaluate TNF α. […] Cells were induced with 25 ng/mL LPS for another 3 hrs. Cells were collected and spun at 1500 g for 10 minutes. Supernatant was collected and analyzed for TNFα.
OT-551 was used in both native form and in the form of nanoparticles. […] Other nitrogenous heterocyclic species of the invention are expected to show similar improvement in efficacy when disposed in nanoparticulate form.

[3] = tested on: Human neuroblastoma SKN-SH cells; assay: Chemoresistance: cancer cell viability (MTT) in presence or absence of doxorubicin; format: cell-based; details: compound alone; P<0.001
Method in brief: as §1

[4] = tested on: bFGF (FGF2) stimulated angiogenesis in CAM model; assay: Angiogenesis in the CAM model using bFGF stimulus; format: in vivo, chicken; details: FGF2 (1 ug) + 30 ug injected
Description: The number of vessel branch points contained in a circular region equal to the area of a filter disk was counted for each section. Percent inhibition data are expressed as the quotient of the experimental value minus the negative control value divided by the difference between the positive control value and the negative control value. One image was counted in each CAM preparation, and findings from eight CAM preparations were analyzed for each treatment condition. In addition, each experiment was performed three times. The resulting angiogenesis index is the mean ± SEM (Standard Error of Measurement) of new branch points in each set of treatment. Statistical analysis of blood vessel branching patterns are performed by 1-way analysis of variance (ANOVA) comparing experimental with corresponding control groups. Statistical significance differences are assessed at P value of <0.05.
Assessment of Angiogenesis in the CAM Model Using bFGF Stimulus.
The CAM model protocol was modified to include stimulus with bFGF. The effect of injected OT 551 was assayed.

[5] = Ocular permeability and retinal levels after topical administration; format: in vivo

melting point: 184.6 °C (dec.)
Molecule: CC1(C)COCC(C)(C)N1O.Cl [Compound 20, 3,3,5,5-1-hydroxy-tetramethylmorpholine]
Lipid Peroxidation % Inhibition (lipid peroxidation): 90.2%
Percent inhibition of angiogenesis in CAM model at 30 ug [1]: 78.6%
Mean OD (×10^−3), cancer cell viability ([2]; Dox. 10^−6 M present (+)): 107.5 ×10^−3
Mean OD (×10^−3), cancer cell viability ([2]; Dox. absent (−)): 515.50 ×10^−3

Molecule: 1-hydroxyl-4-(4-(2,2,6,6-tetramethylpiperidin-1-hydroxyl-4-yloxy)-1,2,5-thiadiazol-3-yloxy)-2,2,6,6-tetramethylpiperidine [Compound 14]
Mean Percent Inhibition of TNF-alpha using 5 ng/mL LPS (TNF-alpha; compound 10 uM, 5 ng/mL LPS): 63 ± 1%
IC50 (TNF-alpha; read-out: TNFalpha IC50): 11.4 µM
% Lipid Peroxidation inhibition (at 1 uM) (lipid peroxidation): 88.6%
Lipid Peroxidation % Inhibition (lipid peroxidation): 95.2%
CAM data % Inhibition [1]: 95.2%
Percent inhibition of angiogenesis in CAM model at 30 ug [1]: 75.1%

Molecule: CC1(C)CC(Oc2nsnc2N2CCOCC2)CC(C)(C)N1O.Cl [Compound 4, 4-(4-(2,2,6,6-tetramethylpiperidin-1-hydroxyl-4-yloxy)-1,2,5-thiazol-3-yl)morpholine]
% Lipid Peroxidation inhibition (at 1 uM) (lipid peroxidation): 87.0%
Lipid Peroxidation % Inhibition (lipid peroxidation): 91.4%
Percent inhibition of angiogenesis in CAM model at 30 ug [1]: 92.8%
reversal of drug resistance ([2]; combined with doxorubicin, osteosarcoma, breast cancer, and neuroblastoma): strong ability to reverse drug resistance
Mean OD (×10^−3), cancer cell viability ([2]; Dox. 10^−6 M present (+)): 88.00 ×10^−3
Mean OD (×10^−3), cancer cell viability ([2]; Dox. absent (−)): 468.50 ×10^−3
killing of doxorubicin-resistant cells ([2]; compound alone, P<0.001): enhanced the killing
killing of doxorubicin-sensitive cells [3]: enhanced the killing

IC50 (TNF-alpha; Homo sapiens, THP-1, read-out: TNFalpha IC50): ≥ 100 µM
Molecule: Cc1nsnc1OCC1=CC(C)(C)N(O)C1(C)C [Compound 47, 3-((1-hydroxy-2,5-dihydro-2,2,5,5-tetramethyl-1H-pyrrol-3-yl)methoxy)-4-methyl-1,2,5-thiadiazole]
% Lipid Peroxidation inhibition (at 1 uM) (lipid peroxidation): 60.3%
Mean OD (×10^−3), cancer cell viability ([2]; Dox. 10^−6 M present (+)): 261.00 ×10^−3
Mean OD (×10^−3), cancer cell viability ([2]; Dox. absent (−)): 1168.33 ×10^−3

Molecule: CC1(C)C=C(C(N)=O)C(C)(C)N1O [Compound 23, 2,5-dihydro-2,2,5,5-tetramethyl-1H-pyrrole-3-carboxamide-1-hydroxy]
IC50 (TNF-alpha; read-out: TNFalpha IC50): 87.4 µM
Percent inhibition of angiogenesis in CAM model at 30 ug [1]: 48.8%
Mean OD (×10^−3), cancer cell viability ([2]; Dox. 10^−6 M present (+)): 416.25 ×10^−3
Mean OD (×10^−3), cancer cell viability ([2]; Dox. absent (−)): 1432.50 ×10^−3

melting point: 225.5 °C (dec.)
Molecule: CC1(C)c2ccc(C(=O)O)cc2C(C)(C)N1O.Cl [Compound 15, 1,1,3,3-tetramethylisoindolin-2-hydroxyl-5-carboxylic acid]
% Lipid Peroxidation inhibition (at 1 uM) (lipid peroxidation): 88.0%
Lipid Peroxidation % Inhibition (lipid peroxidation): 94.6%
Percent inhibition of angiogenesis in CAM model at 30 ug [1]: 71.8%

melting point: 158.1 °C (dec.)
Molecule: CC1(C)CC(NC(=O)N2CCOCC2)CC(C)(C)N1O.Cl [Compound 11, N-(2,2,6,6-tetramethylpiperidin-1-hydroxyl-4-yl)morpholine-4-carboxamide]
Lipid Peroxidation % Inhibition (lipid peroxidation): 82.7%
Percent inhibition of angiogenesis in CAM model at 30 ug [1]: 71%
Mean OD (×10^−3), cancer cell viability ([2]; Dox. 10^−6 M present (+)): 267.25 ×10^−3
Mean OD (×10^−3), cancer cell viability ([2]; Dox. absent (−)): 470.25 ×10^−3

melting point: 191.5 °C (dec.)
Molecule: CC1C(O)C(C)C(C)(C)N(O)C1(C)C.Cl (stereo not drawn) [Compound 6, 2,2,3,5,6,6-Hexamethyl-piperidine-1,4-diol]
% Lipid Peroxidation inhibition (at 1 uM) (lipid peroxidation): 70.5%
Lipid Peroxidation % Inhibition (lipid peroxidation): 89.0%
Percent inhibition of angiogenesis in CAM model at 30 ug [1]: 40.4%
Mean OD (×10^−3), cancer cell viability ([2]; Dox. 10^−6 M present (+)): 185.25 ×10^−3
Mean OD (×10^−3), cancer cell viability ([2]; Dox. absent (−)): 367.00 ×10^−3

melting point: 180.5 °C (dec.)
Molecule: CC(=O)NC1CC(C)(C)N(O)C(C)(C)C1.Cl [Compound 2, 1-hydroxy-4-acetamido-2,2,6,6-tetramethylpiperidine]
Lipid Peroxidation % Inhibition (lipid peroxidation): 81.0%
Percent inhibition of angiogenesis in CAM model at 30 ug [1]: 76%
Mean OD (×10^−3), cancer cell viability ([2]; Dox. 10^−6 M present (+)): 249.25 ×10^−3
Mean OD (×10^−3), cancer cell viability ([2]; Dox. absent (−)): 496.33 ×10^−3

Molecule: CC1(C)CC(OC(=O)C2CC2)CC(C)(C)N1O.Cl [OT-551 HCl]
Mean Percent Inhibition of TNF-alpha using 5 ng/mL LPS (TNF-alpha; compound 10 uM, 5 ng/mL LPS): 68 ± 6%
CAM data % Inhibition [1]: 75.2 ± 9.7% and 79.6 ± 7.9% and 74 ± 4%
% Inhibition ± SEM [4]: 74 ± 4%
Branch pts ± SEM [4]: 87 ± 3
levels in the retina ([5]; after topical administration): good levels
permeability through the cornea ([5]; in vivo): good permeability

Molecule: CC1(C)CC(=O)CC(C)(C)N1O [Compound 5, 1-Hydroxy-2,2,6,6-tetramethyl-piperidin-4-one]
inhibition at 10 µM (TNF-alpha; Homo sapiens, THP-1, read-out: Mean Percent Inhibition of TNF-alpha using 5 ng/mL LPS): 66 ± 7%
IC50 (TNF-alpha; Homo sapiens, THP-1, read-out: TNFalpha IC50 (uM)): 22.2 µM
% Lipid Peroxidation inhibition (at 1 uM) (lipid peroxidation): 71.0%
Lipid Peroxidation % Inhibition (lipid peroxidation): 86.3%
Mean OD (×10^−3), cancer cell viability ([2]; Dox. 10^−6 M present (+)): 245.50 ×10^−3
Mean OD (×10^−3), cancer cell viability ([2]; Dox. absent (−)): 556.50 ×10^−3

Molecule: CC1(C)CC(O)C(C)(C)N1O (stereo not drawn) [Compound 7, 2,2,5,5-Tetramethyl-Pyrrolidine-1,3-diol]
Lipid Peroxidation % Inhibition (lipid peroxidation): 82.9%
Percent inhibition of angiogenesis in CAM model at 30 ug [1]: 100%
Mean OD (×10^−3), cancer cell viability ([2]; Dox. 10^−6 M present (+)): 241.25 ×10^−3
Mean OD (×10^−3), cancer cell viability ([2]; Dox. absent (−)): 540.25 ×10^−3

Molecule: CC1(C)CC(CO)C(C)(C)N1O.Cl (stereo not drawn) [Compound 33]
% Lipid Peroxidation inhibition (at 1 uM) (lipid peroxidation): 54.9%
Percent inhibition of angiogenesis in CAM model at 30 ug [1]: 77.8%
Mean OD (×10^−3), cancer cell viability ([2]; Dox. 10^−6 M present (+)): 300.00 ×10^−3
Mean OD (×10^−3), cancer cell viability ([2]; Dox. absent (−)): 1237.50 ×10^−3

Molecule: CC1(C)CC(NS(C)(=O)=O)CC(C)(C)N1O [Compound 10, 1-hydroxy-4-methanesulfonamido-2,2,6,6-tetramethylpiperidine]
Lipid Peroxidation % Inhibition (lipid peroxidation): 85.8%
Percent inhibition of angiogenesis in CAM model at 30 ug [1]: 78.2%
Mean OD (×10^−3), cancer cell viability ([2]; Dox. 10^−6 M present (+)): 250.00 ×10^−3
Mean OD (×10^−3), cancer cell viability ([2]; Dox. absent (−)): 456.00 ×10^−3

Molecule: CC1(C)CC(C(N)=O)C(C)(C)N1O (stereo not drawn) [Compound 24, 1-hydroxy-2,2,5,5-tetramethylpyrrolidine-3-carboxamide]
% Lipid Peroxidation inhibition (at 1 uM) (lipid peroxidation): 37.0%
Percent inhibition of angiogenesis in CAM model at 30 ug [1]: 65.8%
Mean OD (×10^−3), cancer cell viability ([2]; Dox. 10^−6 M present (+)): 362.00 ×10^−3
Mean OD (×10^−3), cancer cell viability ([2]; Dox. absent (−)): 1166.50 ×10^−3

Molecule: CC1(C)CC(Oc2nsnc2C#N)CC(C)(C)N1O [Compound 45]
% Lipid Peroxidation inhibition (at 1 uM) (lipid peroxidation): 91.5%
Percent inhibition of angiogenesis in CAM model at 30 ug [1]: 50%
Mean OD (×10^−3), cancer cell viability ([2]; Dox. 10^−6 M present (+)): 276.50 ×10^−3
Mean OD (×10^−3), cancer cell viability ([2]; Dox. absent (−)): 1063.33 ×10^−3

Molecule: CC1(C)CC(O)CC(C)(C)N1O [TEMPOL-H, 2,2,6,6-tetramethylpiperidine-1,4-diol, reference compound]
inhibition at 10 µM (TNF-alpha; Homo sapiens, THP-1, compound 10 uM, 5 ng/mL LPS, read-out: Mean Percent Inhibition of TNF-alpha using 5 ng/mL LPS): 74 ± 8%
effect of H2O2 in the CAM model ([1]; H2O2 induced angiogenesis, FIG. 1): dose dependent effect
